Reference: patent publication US20230348459A1, “PYRROLIDINE COMPOUND AND USE THEREOF” (SIMCERE PHARMACEUTICAL CO., LTD., priority 2020, published 2023)
In brackets after ≈: the same amount, converted by molar mass.

Assays:
[1] = Plasma protein binding rate, equilibrium dialysis, rat plasma; type: in vitro ADME; settings: pH 7.4, SD rat plasma, 6 hours dialysis
Protocol: (§1) The protein binding rate of the compounds of the present invention in the plasma of five species (human, monkey, dog, rat and mouse) was determined by the following test method.
(§2) • 1. Human plasma (BioIVT), beagle dog plasma (BioIVT), SD rat plasma (BioIVT), CD-1 mouse plasma (BioIVT); • 2. 96-well equilibrium dialysis plate (HTDialysis LLC, Gales Ferry, CT, HTD96B), equilibrium dialysis membrane (MWCO 12-14 K, #1101); • 3. Positive control compound warfarin; • 4. ABI QTrap 5500 liquid chromatography-mass spectrometry.
(§3) 1. Preparation of a buffer with a concentration of 100 mM sodium phosphate and 150 mM NaCl: an alkaline solution with a concentration of 14.2 g/L Na2HPO4 and 8.77 g/L NaCl was prepared with ultrapure water, and an acidic solution with a concentration of 12.0 g/L NaH2PO4 and 8.77 g/L NaCl was prepared with ultrapure water. The alkaline solution was titrated with the acidic solution to pH 7.4 to prepare a buffer with a concentration of 100 mM sodium phosphate and 150 mM NaCl.
(§4) 2. Preparation of dialysis membrane: the dialysis membrane was soaked in ultrapure water for 60 minutes to separate the membrane into two pieces, then soaked in 20% ethanol for 20 minutes, and finally soaked in the buffer used for dialysis for 20 minutes.
(§5) 3. Preparation of plasma: the frozen plasma was quickly thawed at room temperature, then the plasma was centrifuged at 3,220 g at 4° C. for 10 min to remove clots, and the supernatant was collected into a new centrifuge tube. The pH of the plasma was measured and recorded, and the plasma with pH of 7-8 was used.
(§6) 3. Preparation of compound-containing plasma samples: 10 mM stock solution of compounds of the present invention or positive control compounds were diluted with DMSO to obtain 200 µM working solution. […]
(§7) The peak areas of the compounds on the buffer side and the plasma side were determined. […]
(§8) All the data was calculated by the Microsoft Excel software. The plasma protein binding rate values of the compounds of the present invention were calculated.

[2] = Plasma protein binding rate, equilibrium dialysis, human plasma; type: in vitro ADME; settings: pH 7.4, 6 hours dialysis
Protocol: as §1, §2, §3, §4, §5, §6, §7, §8

[3] = Apparent solubility in phosphate buffer at pH 7.4; type: physicochemical; settings: aqueous buffer, kinetic from dmso stock, phosphate buffer pH 7.4, 25° C.
Protocol: The compounds to be tested were prepared according to the method described. The control drug progesterone was purchased from Sigma. Phosphate buffer with pH 7.4 was prepared in our laboratory. Acetonitrile and methanol were purchased from Fisher. Other reagents were purchased from the market.
10 mM stock solution of substance to be tested and control drug progesterone was prepared with DMSO.
30 µL of 10 mM stock solution of substance to be tested was taken, and added to the corresponding position of the corresponding 96-well plate in the specified order. 970 µL of phosphate buffer (pH 7.4) was added to the corresponding vial in the sample plate. The experiment was performed in parallel duplicate. A stirring rod was added to each vial and a polytetrafluoroethylene/silicone stopper was covered thereon. The sample tray was then placed in an Eppendorf Thermomixer Comfort and shaken at 1100 rpm for 2 hours at 25° C. After 2 hours, the stopper was removed, and the stirring rod was sucked away by a large magnet, then the sample was transferred from the sample plate to the filter plate. A vacuum pump was used to generate negative pressure and the sample was filtered. 5 µL of the filtrate was transferred to a new sample plate, and then 5 µL of DMSO and 490 µL of 50% ACN(IS).H2O (internal standard acetonitrile : water = 1 : 1) were added. Depending on the peak shape, it may be possible to dilute the sample diluent with a certain proportion of 50% ACN(IS).H2O for better peak shape. […]
The loading plate was placed in the loading tray of the autosampler, and the sample was evaluated by liquid chromatography-mass spectrometry analysis.
All calculations are performed via Microsoft Excel. Analysis and quantification of the sample filtrate was accomplished by using the liquid chromatography-mass spectrometry to characterize and quantify the peaks of the standards with known concentrations. The apparent solubility of the compounds of the present invention in phosphate buffer (PH 7.4) was calculated.

MCF7 cells = experiment: Inhibition of the proliferation of MCF7 cells (CellTiter-Glo); type: cell-based; settings: Homo sapiens, MCF7, 168 h; 7 days treatment; read-out: MCF-7 cell proliferation inhibition IC50
Protocol: The purpose of the experiment is to determine the inhibitory effect of the compounds of the present invention on the proliferation of MCF7 cells in vitro, and to evaluate the activity of the compounds according to IC50 and maximum inhibitory efficiency.
MCF7 cells (ATCC, HTB-22) were cultured in DMEM (Gibco, 11995-065) complete medium containing 10% fetal bovine serum. On the first day of the experiment, MCF7 cells were inoculated in a 384-well plate at a density of 500 cells/well using the complete medium, and cultured in a 37° C., 5% CO2 cell incubator overnight. The next day, the compounds to be tested were added for drug treatment, and the compound solution with a stock concentration of 10 mM was diluted with Echo550 (Labcyte Inc.) and transferred to each cell culture well. Each compound with the starting concentration for treatment of 100 nM in cells was subjected to 3-fold gradient dilution with 9 concentration points. A blank control containing 0.3% DMSO was set, and double replicate wells as controls were set at each concentration point. The culture was cultured in a 37° C., 5% CO2 cell incubator for 7 days, and the cell culture plate was taken out on day 8.

[4] = Plasma protein binding rate, equilibrium dialysis, dog plasma; type: in vitro ADME; settings: pH 7.4, Beagle dog plasma, 6 hours dialysis
Protocol: as §1, §2, §3, §4, §5, §6, §7, §8

C[C@@H]1Cc2c([nH]c3ccccc23)C(c2c(F)cc(N[C@H]3CCN(CCCF)C3)cc2F)N1CC(F)(F)F (stereo in doubt) [Example 4, (S)-N-(3,5-difluoro-4-((1S,3R)-3-methyl-2-(2,2,2-trifluoroethyl)-2,3,4,9-tetrahydro-1H-pyridino[3,4-b]indol-1-yl)phenyl)-1-(3-fluoropropyl)pyrrolidin-3-amine]
fraction unbound at 6 h, 1 µM [1]: 0.002
fraction unbound at 6 h, 1 µM [2]: 0.002
solubility at 2 h [3]: < 0.3 µM
IC50 (MCF7 cells): 0.23 nM
fraction unbound at 6 h, 1 µM [4]: 0.002

C[C@@H]1Cc2c([nH]c3ccccc23)C(c2c(F)cc(N[C@H]3CCN(CCCF)C3)cc2F)N1CC(F)(F)CO (stereo in doubt) [Example 7, 3-((1S,3R)-1-(2,6-difluoro-4-(((S)-1-(3-fluoropropyl)pyrrolidin-3-yl)amino)phenyl)-3-methyl-3,4-dihydro-1H-pyridino [3,4-b]indole-2(9H)-yl)-2,2-difluoropropane-1-ol]
fraction unbound at 6 h, 1 µM [1]: 0.015
fraction unbound at 6 h, 1 µM [2]: 0.005
solubility at 2 h [3]: 4 µM (≈ 2.15 µg/mL)
IC50 (MCF7 cells): 0.12 nM
fraction unbound at 6 h, 1 µM [4]: 0.012

C[C@@H]1Cc2c([nH]c3ccccc23)[C@@H](c2ccc(N[C@H]3CCN(CCCF)C3)cn2)N1CC(F)(F)F [Example 3, N-((S)-1-(3-fluoropropyl)pyrrolidin-3-yl)-6-((1S,3R)-3-methyl-2-(2,2,2-trifluoroethyl)-2,3,4,9-tetrahydro-1H-pyridino[3,4-b]indol-1-yl)pyridine-3-amine]
fraction unbound at 6 h, 1 µM [1]: 0.029
fraction unbound at 6 h, 1 µM [2]: 0.012
solubility at 2 h [3]: 92 µM (≈ 45 µg/mL)
IC50 (MCF7 cells): 0.27 nM
fraction unbound at 6 h, 1 µM [4]: 0.013
